# Reference: patent publication US10450300B2, “Wnt signaling pathway inhibitors and therapeutic applications thereof” (Suzhou Yunxuan Yiyao Keji Youxian Gongsi, priority 2015, dated 2019)
# Tested on: Wnt pathway
# Assay: Wnt pathway Super-top flash (STF) reporter gene assay (primary assay)
# Format: cell-based
# Conditions: HEK293 STF cells co-cultured 1:1 with L Wnt3A cells; 48 h incubation; inhibition of luminescence signaling
# Procedure, shortened: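 HEK293 cells stably carrying a Super-Top Flash TCF-luciferase reporter were co-cultured 1:1 with L Wnt3A cells for 24 h, then exposed to compound dilutions for 48 h at 37 °C. Luminescence read-out (Bright-Glo); IC50 from inhibition of luminescence.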
row,SMILES,IC50
1,Cc1cc(-c2ncc(CNc3ncnc(N4CCc5ncccc5C4)c3F)cc2C)ccn1 [Compound A-46],4.9 nM
2,Cc1cc(-c2ncc(CNc3ncnc(N4CCn5nnnc5C4)c3F)cc2F)ccn1 [Compound A-93],40 nM
3,Cc1cc(-c2ccc(CNc3ncnc(-c4ccc5nc(C)ccc5c4)c3F)cc2)ccn1 [Compound A-5],2.1 nM
4,Cc1cc(-c2ncc(CNc3ncnc(NCC4CC4)c3F)cc2F)ccn1 [Compound A-81],625 nM
5,"Cc1cc(-c2ncc(CNc3ncnc(C#Cc4cccnc4)c3F)cc2F)ccn1 [Compound A-69, 5-fluoro-N-((3-fluoro-2′-methyl-2,4′-bipyridin-5-yl)methyl)-6-(pyridin-3-ylethynyl)pyrimidin-4-amine]",73 nM
6,Cc1cc(-c2ncc(CNc3nccc(-c4cc5cccnc5cn4)c3F)cc2F)ccn1 [Compound A-103],0.12 nM
7,Cc1cc(-c2ccc(CNc3cc(-c4ccc5ccccc5c4)nc(N4CCCC4)n3)cc2)ccn1 [Compound A-141],3000 nM
8,Cc1cc(-c2ncc(CNc3nccc(-c4ccc5nnccc5c4)c3F)cc2F)ccn1 [Compound A-110],1 nM
9,Cc1cc(-c2ccc(CNc3ncnc(-c4ccccc4Cl)c3F)cc2)ccn1 [Compound A-18],480 nM
10,O=S1(=O)CCN(c2ccc(CNc3nsc(-c4ccc5ncccc5c4)n3)cn2)CC1 [Compound A-188],4.6 nM
11,Cc1cc(-c2ccc(CNc3nccc(-c4ccc5ncccc5c4)n3)cc2)ccn1 [Compound A-154],1.2 nM
12,Cc1cc(-c2ccc(CNc3nccc(-c4ccc5ncccc5c4)n3)cn2)ccn1 [Compound A-169],4.9 nM
13,Cc1cc(-c2ccc(CNc3ncnc(-c4ccc5ncccc5c4)c3F)cc2)ccn1 [Compound A-4],0.3 nM
14,Cc1cc(-c2ncc(CNc3nccc(-c4ccc5nccnc5c4)c3F)cc2F)ccn1 [Compound A-124],0.12 nM
15,"Cc1cc(-c2ncc(CNc3ncnc(N4CCc5ncccc5C4)c3F)cn2)ccn1 [Compound A-61, 6-(7,8-dihydro-1,6-naphthyridin-6(5H)-yl)-5-fluoro-N-((2-(2-methylpyridin-4-yl)pyrimidin-5-yl)methyl)pyrimidin-4-amine]",1.3 nM
16,"Cc1cc(-c2ncc(CNc3nsc(N4CCc5ncccc5C4)n3)cc2C#N)ccn1 [Compound A-198, 5-((5-(7,8-dihydro-1,6-naphthyridin-6(5H)-yl)-1,2,4-thiadiazol-3-ylamino)methyl)-2′-methyl-2,4′-bipyridine-3-carbonitrile]",0.42 nM
17,Cc1cc(-c2ccc(CNc3ncnc(-c4ccc(Cl)c(Cl)c4)c3F)cc2)ccn1 [Compound A-21],14 nM
18,"Cc1cc(-c2ncc(CNc3nccc(N4CCc5ncccc5C4)c3F)cc2F)ccn1 [Compound A-202, 4-(7,8-dihydro-1,6-naphthyridin-6(5H)-yl)-3-fluoro-N-((3-fluoro-2′-methyl-2,4′-bipyridin-5-yl)methyl)pyridin-2-amine]",0.5 nM

row,SMILES,IC50
1,Cc1cc(-c2ncc(CNc3nccc(-c4ccc5ncccc5c4)n3)cc2F)ccn1 [Compound A-168],0.85 nM
2,Cc1cc(-c2ccc(CNc3ncnc(-c4ccc5ccncc5c4)c3F)cc2)ccn1 [Compound A-7],7.4 nM
3,Cc1cc(-c2ccc(CNc3ncnc(-c4ccc5[nH]cnc5c4)c3F)cc2)ccn1 [Compound A-10],285 nM
4,Cc1cc(-c2ccc(CNc3ncnc(N4CCc5c(Br)cccc5C4)c3F)cc2)ccn1 [Compound A-25],> 1000 nM
5,CS(=O)(=O)CCNc1ccc(CNc2nccc(-c3ccc4ncccc4c3)n2)cn1 [Compound A-181],350 nM
6,Cc1cc(-c2ccc(CNc3cccc(-c4ccc5ccccc5c4)c3)cc2)ccn1 [Compound A-149],603 nM
7,Cc1cc(-c2ccc(CNc3ncnc(-c4ccc5c(c4)OCCO5)c3F)cc2)ccn1 [Compound A-16],27 nM
8,Cc1cc(-c2ccc(CNc3ncnc(-c4ccc5ncsc5c4)c3F)cn2)ccn1 [Compound A-50],1 nM
9,Cc1cc(-c2ncc(CNc3nccc(-c4cnn(C)c4)c3F)cc2C#N)ccn1 [Compound A-128],1.8 nM
10,Cc1cc(-c2ccc(CNc3ncnc(-c4cnc5ccccc5c4)c3F)cc2)ccn1 [Compound A-2],2.9 nM
11,Cc1cc(-c2ncc(CNc3nccc(-c4ccc5ncccc5c4)c3F)cn2)ccn1 [Compound A-100],0.27 nM
12,Cc1cc(-c2ncc(CNc3nnc(-c4ccc5ncccc5c4)s3)cc2C#N)ccn1 [Compound A-185],4.3 nM
13,N#Cc1ccc2nc(CNc3nccc(-c4ccc5ncccc5c4)n3)ccc2c1 [Compound A-178],200 nM
14,Cc1cc(-c2ccc(CNc3ncnc(N4CCc5c(C#N)cccc5C4)c3F)cc2)ccn1 [Compound A-53],89 nM
15,Fc1c(NCc2ccc(-c3ccncn3)cc2)ncnc1-c1ccc2ncccc2c1 [Compound A-77],1.6 nM
16,Cc1cc(-c2ncc(CNc3ncnc(-c4ccc5ncsc5c4)c3F)cc2F)ccn1 [Compound A-49],0.39 nM
17,Fc1c(-c2ccc3ncccc3c2)ccnc1NCc1ccc(-n2ccnc2)cc1 [Compound A-105],5.2 nM

# Results, then the compound that gave them:
row,IC50,SMILES
1,8 nM,Cc1cc(-c2ncc(CNc3nccc(-c4cncc(Cl)c4)c3F)cc2F)ccn1 [Compound A-116]
2,3.7 nM,Cc1cc(-c2ncc(CNc3nccc(-c4ccc5ncccc5c4)n3)cc2C)ccn1 [Compound A-170]
3,5 nM,Fc1c(NCc2ccc(-c3ccncc3)cc2)ncnc1-c1ccc2ccccc2c1 [Compound A-38]
4,0.3 nM,Cc1cc(-c2ccc(CNc3ncnc(-c4ccc5ncsc5c4)c3F)cc2)ccn1 [Compound A-12]
5,250 nM,Cc1cc(-c2ccc(CNc3cccc(-c4ccc5ccccc5c4)n3)cc2)ccn1 [Compound A-150]
6,4 nM,Cc1cc(-c2ncc(CNc3ncnc(-c4ccc5ccccc5c4)c3F)cc2F)ccn1 [Compound A-35]
7,0.44 nM,COc1cc(CNc2ncnc(-c3ccc4ncccc4c3)c2F)cnc1-c1ccnc(C)c1 [Compound A-65]
8,0.31 nM,Cc1cc(-c2ncc(CNc3nccc(-c4ccc5ncccc5c4)n3)cc2C#N)ccn1 [Compound A-171]
9,17 nM,Cc1cc(-c2ccc(CNc3ncnc(N4Cc5ccccc5C4)c3F)cc2)ccn1 [Compound A-52]
10,0.11 nM,Cc1cc(-c2ncc(CNc3nccc(-c4ccc5ncccc5c4)c3F)cc2C#N)ccn1 [Compound A-99]
11,68 nM,c1ccc2cc(-c3cc(NCc4ccc(-c5ccncc5)cc4)ncn3)ccc2c1 [Compound A-146]
12,0.64 nM,COc1cc(CNc2nccc(-c3cc4cccnc4cn3)n2)cnc1-c1ccnc(C)c1 [Compound A-182]
13,15 nM,Cc1cc(-c2ncc(CNc3ncnc(N4CCn5nncc5C4)c3F)cc2F)ccn1 [Compound A-95]
14,0.8 nM,COc1cc(CNc2ncnc(N3CCn4nccc4C3)c2F)cnc1-c1ccnc(C)c1 [Compound A-94]
15,2000 nM,Cc1cc(-c2ccc(CNc3ncnc(-c4ccc5ccccc5c4)c3C)cc2)ccn1 [Compound A-143]
16,0.17 nM,"N#Cc1ccc2cc(CNc3nsc(-c4ccc5ncccc5c4)n3)cnc2c1 [Compound A-199, 3-((5-(quinolin-6-yl)-1,2,4-thiadiazol-3-ylamino)methyl)quinoline-7-carbonitrile]"
17,4.9 nM,Cc1cc(-c2ccc(CNc3nccc(-c4ccc5ccccc5c4)n3)cc2)ccn1 [Compound A-152]
18,0.25 nM,Cc1cncc(-c2ccnc(NCc3cnc(-c4ccnc(C)c4)c(C#N)c3)c2F)c1 [Compound A-132]
19,6.7 nM,Cc1cc(-c2ccc(CNc3ncnc(-c4ccc5ncccc5c4)n3)cc2)ccn1 [Compound A-160]
20,17 nM,Cc1cc(-c2ccc(C(C)Nc3ncnc(-c4ccc5ccccc5c4)c3F)cc2)ccn1 (centres unmarked) [Compound A-28]
21,230 nM,Cc1cc(-c2ccc(CNc3ncnc(N4CCn5c(nnc5C(F)(F)F)C4)c3F)cc2)ccn1 [Compound A-59]
22,12 nM,N#Cc1ccc(NCCNc2nccc(-c3ccc4ncccc4c3)c2F)nc1 [Compound A-120]
23,0.31 nM,Cc1cc(-c2ccc(CNc3nccc(-c4ccc5ncccc5c4)c3F)cn2)ccn1 [Compound A-101]
24,40 nM,Cc1cc(-c2ccc(C(C)Nc3cc(-c4ccc5ccccc5c4)ncn3)cc2)ccn1 (centres unmarked) [Compound A-147]
